This is an account of results in article PMC7663272, “Discovery of Tricyclic Pyranochromenone as Novel Bruton’s Tyrosine Kinase Inhibitors with In Vivo Antirheumatic Activity” (International Journal of Molecular Sciences, 2020).

By inhibition is commonly meant the percentage by which the read-out fell short of the control. A word on the IC50: it is the point on the concentration scale where inhibition reaches its midpoint.

One data set concerns the target T1, BTK-wt (Homo sapiens, UniProt Q06187).
T1 construct: purchased Reaction Biology Corporation
The data set is described as follows: HotSpot kinase enzymatic assay, BTK-wt. It counts as biochemical. The procedure: Kinase enzymatic assays for BTK, BMX, TXK, TEC, ITK, EGFR, ERBB2, ERBB4, and JAK3 were performed at Reaction Biology Corporation (www.reactionbiology.com, Malvern, PA, USA) using the HotSpot assay platform. Briefly, specific kinase/substrate pairs and the required cofactors were prepared in a reaction buffer comprising 20 mM HEPES (pH 7.5), 10 mM MgCl2, 1 mM EGTA, 0.02% Brij35, 0.02 mg/mL BSA, 0.1 mM Na3VO4, 2 mM DTT, and 1% DMSO. The compounds were added to the reaction mixture and allowed to incubate. Approximately 20 min later, a mixture of ATP (Sigma-Aldrich, St. Louis, MO, USA) and ^33P ATP (PerkinElmer, Waltham, MA, USA) was added to the reaction mixture at a final concentration of 10 μM. The reactions were performed at room temperature for 120 min; subsequently, the reactions were spotted onto P81 ion exchange filter papers (Whatman Inc., Maidstone, UK). […] GraphPad Prism software was used to obtain the IC50 values and perform curve fitting.

Another data set concerns the target T2, ERBB2 (Homo sapiens, UniProt P04626).
T2 construct: purchased Reaction Biology Corporation
The data set is described as follows: HotSpot kinase enzymatic assay, ERBB2. It counts as biochemical. To be noted: mean of two experiments. The procedure:
(§1) Therefore, efforts have focused on developing new compounds with good selectivity profiles. […] Compound 8 was selective against BTK. The biochemical activities of compound 8 differed among TEC family kinases. […] The inhibitory potential of compound 8 differed between members of the EGFR family. […] The inhibitory activity of compound 8 against JAK3 was also low.
(§2) Kinase enzymatic assays for BTK, BMX, TXK, TEC, ITK, EGFR, ERBB2, ERBB4, and JAK3 were performed at Reaction Biology Corporation (www.reactionbiology.com, Malvern, PA, USA) using the HotSpot assay platform. Briefly, specific kinase/substrate pairs and the required cofactors were prepared in a reaction buffer comprising 20 mM HEPES (pH 7.5), 10 mM MgCl2, 1 mM EGTA, 0.02% Brij35, 0.02 mg/mL BSA, 0.1 mM Na3VO4, 2 mM DTT, and 1% DMSO. The compounds were added to the reaction mixture and allowed to incubate. Approximately 20 min later, a mixture of ATP (Sigma-Aldrich, St. Louis, MO, USA) and ^33P ATP (PerkinElmer, Waltham, MA, USA) was added to the reaction mixture at a final concentration of 10 μM. The reactions were performed at room temperature for 120 min; subsequently, the reactions were spotted onto P81 ion exchange filter papers (Whatman Inc., Maidstone, UK). Any unbound phosphate was removed by thoroughly washing the filter papers with 0.75% phosphoric acid. […]

Another data set concerns the target T3, ERBB4 (Homo sapiens, UniProt Q15303).
T3 construct: purchased Reaction Biology Corporation
The data set is described as follows: HotSpot kinase enzymatic assay, ERBB4. In kind it is biochemical. The procedure:
as §1, §2

The next data set deals with T4, CYP2C9 (Homo sapiens, UniProt P11712).
T4 construct: purchased Promega V9790
T4 sequence (P11712 whole entry): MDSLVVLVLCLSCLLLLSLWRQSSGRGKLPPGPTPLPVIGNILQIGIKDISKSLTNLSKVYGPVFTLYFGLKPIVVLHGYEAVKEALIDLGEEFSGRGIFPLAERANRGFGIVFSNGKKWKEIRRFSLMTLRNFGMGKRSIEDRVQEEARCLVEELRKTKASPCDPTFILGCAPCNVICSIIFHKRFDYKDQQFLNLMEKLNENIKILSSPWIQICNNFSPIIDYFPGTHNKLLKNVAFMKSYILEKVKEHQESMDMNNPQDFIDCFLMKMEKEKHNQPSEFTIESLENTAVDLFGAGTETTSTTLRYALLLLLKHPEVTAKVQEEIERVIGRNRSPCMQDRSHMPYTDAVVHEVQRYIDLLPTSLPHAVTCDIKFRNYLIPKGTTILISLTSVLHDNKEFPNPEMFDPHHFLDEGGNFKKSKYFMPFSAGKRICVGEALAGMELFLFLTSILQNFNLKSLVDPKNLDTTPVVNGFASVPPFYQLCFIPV
The data set can be described thus: P450-Glo CYP inhibition assay, CYP2C9. It counts as in vitro ADME. The procedure: The potential for CYP450 inhibition (CYP1A2, 2C9, 2C19, 2D6, and […]) was assessed using Promega P450-Glo^TM CYP450 assay systems. Luciferin-ME served as the substrate for CYP1A2, and the inhibitor α-naphthoflavone was used as a positive control. Luciferin-H was used as the substrate for CYP2C9, and the inhibitor sulfaphenazole was used as a positive control. Luciferin-H EGE was selected as the substrate for CYP2C19, whereas the inhibitor amitriptyline served as a positive control. Luciferin-ME EGE was used as the substrate for CYP2D6, whereas the inhibitor quinidine served as a positive control. Luciferin-BE was used as the substrate for CYP3A4, whereas the inhibitor ketoconazole was used as a positive control. The assays were performed using the excitation and emission wavelengths recommended by the manufacturer. Briefly, a CYP enzyme and a P450-Glo™ substrate were combined in potassium phosphate (0.1 M KPO4) buffer, with or without a test compound of interest, and […]. The reaction was initiated by adding two volumes of 2 times concentrated NADPH regeneration system. […] Luminescence was subsequently measured using a Tecan Infinite M1000 PRO microplate reader (Tecan Group Ltd., Switzerland). The percent inhibition was calculated relative to that of the positive control at a fixed concentration. […]

In a further data set the target is T5, BMX (Homo sapiens, UniProt P51813).
T5 construct: purchased Reaction Biology Corporation
T5 sequence (P51813 1-675): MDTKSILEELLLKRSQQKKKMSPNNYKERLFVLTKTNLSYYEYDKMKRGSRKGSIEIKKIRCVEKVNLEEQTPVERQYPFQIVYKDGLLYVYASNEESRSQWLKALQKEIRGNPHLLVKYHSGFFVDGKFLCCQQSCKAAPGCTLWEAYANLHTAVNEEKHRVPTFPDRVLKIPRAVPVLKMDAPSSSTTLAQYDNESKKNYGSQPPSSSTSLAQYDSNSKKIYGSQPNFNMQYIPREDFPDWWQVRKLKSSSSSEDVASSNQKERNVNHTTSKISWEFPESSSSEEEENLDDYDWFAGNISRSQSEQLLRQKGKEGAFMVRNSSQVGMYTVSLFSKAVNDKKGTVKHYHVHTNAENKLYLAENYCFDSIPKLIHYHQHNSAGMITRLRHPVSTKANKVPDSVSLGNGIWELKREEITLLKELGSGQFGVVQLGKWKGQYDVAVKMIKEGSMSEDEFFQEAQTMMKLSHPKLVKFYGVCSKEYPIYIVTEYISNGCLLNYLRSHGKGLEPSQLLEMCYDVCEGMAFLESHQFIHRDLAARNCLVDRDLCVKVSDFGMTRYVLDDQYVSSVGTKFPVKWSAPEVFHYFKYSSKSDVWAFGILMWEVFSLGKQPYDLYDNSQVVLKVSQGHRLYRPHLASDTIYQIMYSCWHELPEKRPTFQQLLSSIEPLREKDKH
The data set can be described thus: HotSpot kinase enzymatic assay, BMX. It counts as biochemical. The procedure: as §1, §2

Where two headings read alike, the source gives them in different places.

T1 sequence (Q06187 whole entry): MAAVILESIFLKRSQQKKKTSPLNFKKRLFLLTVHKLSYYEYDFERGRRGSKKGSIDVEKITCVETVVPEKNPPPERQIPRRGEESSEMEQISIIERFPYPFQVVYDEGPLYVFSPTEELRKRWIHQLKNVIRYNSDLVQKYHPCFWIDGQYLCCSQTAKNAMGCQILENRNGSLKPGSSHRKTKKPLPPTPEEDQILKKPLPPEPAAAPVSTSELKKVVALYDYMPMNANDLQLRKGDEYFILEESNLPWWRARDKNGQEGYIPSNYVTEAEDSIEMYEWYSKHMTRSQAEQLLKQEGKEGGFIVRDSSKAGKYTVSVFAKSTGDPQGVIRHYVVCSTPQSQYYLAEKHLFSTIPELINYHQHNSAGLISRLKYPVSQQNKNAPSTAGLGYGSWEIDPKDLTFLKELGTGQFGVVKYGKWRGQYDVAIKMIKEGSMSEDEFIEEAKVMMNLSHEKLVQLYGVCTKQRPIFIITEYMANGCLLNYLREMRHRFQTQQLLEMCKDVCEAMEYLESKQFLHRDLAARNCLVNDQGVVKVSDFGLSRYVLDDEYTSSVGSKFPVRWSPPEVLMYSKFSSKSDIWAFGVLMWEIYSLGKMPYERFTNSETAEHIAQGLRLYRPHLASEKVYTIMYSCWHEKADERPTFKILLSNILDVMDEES
T3 sequence (Q15303 26-1308): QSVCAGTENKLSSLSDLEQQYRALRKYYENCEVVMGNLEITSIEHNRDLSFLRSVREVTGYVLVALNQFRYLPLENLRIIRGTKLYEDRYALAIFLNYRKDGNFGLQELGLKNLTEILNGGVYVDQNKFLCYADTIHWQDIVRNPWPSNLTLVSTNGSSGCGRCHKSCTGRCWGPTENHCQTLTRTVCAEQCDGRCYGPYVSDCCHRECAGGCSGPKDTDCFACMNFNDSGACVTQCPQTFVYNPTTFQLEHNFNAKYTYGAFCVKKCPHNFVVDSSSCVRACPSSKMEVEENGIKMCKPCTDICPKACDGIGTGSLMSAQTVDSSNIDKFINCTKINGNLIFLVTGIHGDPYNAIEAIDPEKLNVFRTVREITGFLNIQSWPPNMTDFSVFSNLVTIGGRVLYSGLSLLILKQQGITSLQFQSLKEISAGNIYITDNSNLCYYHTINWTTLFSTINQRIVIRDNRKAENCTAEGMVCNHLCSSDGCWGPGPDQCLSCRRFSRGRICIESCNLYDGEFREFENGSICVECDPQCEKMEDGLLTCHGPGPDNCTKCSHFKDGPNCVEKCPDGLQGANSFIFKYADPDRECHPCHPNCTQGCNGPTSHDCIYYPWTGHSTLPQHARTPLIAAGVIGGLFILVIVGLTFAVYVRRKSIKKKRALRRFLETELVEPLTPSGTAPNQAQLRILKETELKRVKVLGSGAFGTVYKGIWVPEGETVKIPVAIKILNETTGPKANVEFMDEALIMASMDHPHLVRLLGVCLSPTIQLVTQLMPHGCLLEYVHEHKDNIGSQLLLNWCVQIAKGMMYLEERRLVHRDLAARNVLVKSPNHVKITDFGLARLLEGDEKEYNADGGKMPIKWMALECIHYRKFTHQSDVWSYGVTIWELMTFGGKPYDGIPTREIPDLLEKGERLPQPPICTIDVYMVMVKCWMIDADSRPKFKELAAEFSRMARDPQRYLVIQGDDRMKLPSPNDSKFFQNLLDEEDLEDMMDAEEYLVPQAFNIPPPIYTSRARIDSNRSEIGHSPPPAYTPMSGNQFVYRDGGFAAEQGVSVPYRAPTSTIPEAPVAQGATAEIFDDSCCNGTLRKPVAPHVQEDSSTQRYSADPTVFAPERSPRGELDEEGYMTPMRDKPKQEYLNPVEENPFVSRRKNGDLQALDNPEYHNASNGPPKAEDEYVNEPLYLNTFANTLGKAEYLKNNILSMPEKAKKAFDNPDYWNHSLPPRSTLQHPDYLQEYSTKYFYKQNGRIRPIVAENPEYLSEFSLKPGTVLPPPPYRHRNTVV
T2 sequence (P04626 23-1255): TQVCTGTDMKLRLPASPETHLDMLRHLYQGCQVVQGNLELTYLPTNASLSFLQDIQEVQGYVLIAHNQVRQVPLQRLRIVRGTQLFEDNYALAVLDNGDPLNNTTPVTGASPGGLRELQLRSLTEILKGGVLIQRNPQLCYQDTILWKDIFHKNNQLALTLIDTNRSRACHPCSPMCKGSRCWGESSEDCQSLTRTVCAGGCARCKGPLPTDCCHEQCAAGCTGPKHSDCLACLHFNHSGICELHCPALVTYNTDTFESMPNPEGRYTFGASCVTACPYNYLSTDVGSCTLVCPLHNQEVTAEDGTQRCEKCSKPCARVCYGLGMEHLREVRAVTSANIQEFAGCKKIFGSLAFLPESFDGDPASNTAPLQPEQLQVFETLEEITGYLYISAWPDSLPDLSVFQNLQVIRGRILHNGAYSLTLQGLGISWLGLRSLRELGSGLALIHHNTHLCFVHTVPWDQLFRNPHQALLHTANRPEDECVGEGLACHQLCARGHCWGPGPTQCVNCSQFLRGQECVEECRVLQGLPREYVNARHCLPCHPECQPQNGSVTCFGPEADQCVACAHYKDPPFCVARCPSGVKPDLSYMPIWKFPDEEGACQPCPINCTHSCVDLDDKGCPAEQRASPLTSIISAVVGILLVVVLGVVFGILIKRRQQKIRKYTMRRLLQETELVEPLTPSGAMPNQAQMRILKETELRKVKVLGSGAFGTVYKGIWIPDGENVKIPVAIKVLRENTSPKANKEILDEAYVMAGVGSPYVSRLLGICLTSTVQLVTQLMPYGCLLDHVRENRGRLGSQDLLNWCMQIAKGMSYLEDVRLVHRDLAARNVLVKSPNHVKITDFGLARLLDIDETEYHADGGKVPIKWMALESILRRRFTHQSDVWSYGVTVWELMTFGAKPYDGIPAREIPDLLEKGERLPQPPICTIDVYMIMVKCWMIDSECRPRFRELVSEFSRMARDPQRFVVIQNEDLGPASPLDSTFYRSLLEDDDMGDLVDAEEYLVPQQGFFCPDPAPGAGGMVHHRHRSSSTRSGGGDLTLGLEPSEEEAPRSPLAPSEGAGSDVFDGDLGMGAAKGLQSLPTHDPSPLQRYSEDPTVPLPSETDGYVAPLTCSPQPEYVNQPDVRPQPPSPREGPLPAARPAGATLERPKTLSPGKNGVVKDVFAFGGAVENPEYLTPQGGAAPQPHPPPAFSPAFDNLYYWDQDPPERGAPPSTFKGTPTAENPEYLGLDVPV

In the case of `C=CC(=O)O[C@H]1Cc2cc3ccc(=O)oc3cc2OC1(C)C` [Compound 8, (7S)-(+)-Acrylic acid, 8,8-dimethyl-2-oxo-6,7-dihydro-2H,8H-pyrano [3,2-g]chromen-7-yl ester], the inhibition at 10 µM was 98.2% at BTK-wt (vs negative control (DMSO), mean of two separate experiments, NA = not active at 10 µM, read-out: % Inhibition (10 µM) BTK-wt); 98.2% on BTK-wt (Table 2 selectivity profile, mean of two experiments, read-out: % Inhibition at 10 µM, BTK); 59.2% against ERBB2; 95.4% against BMX (10 µM, mean of two experiments). In addition, the IC50 against BTK-wt (HotSpot assay, 10 μM ATP, GraphPad Prism) was 800 nM. The “kinase selectivity (in words)” value on BTK-wt (over EGFR and TEC family kinases, JAK3) is “selective for BTK over ITK, EGFR, ERBB4, and JAK3”. The “inhibitory activity against ERBB4 (in words)” value against ERBB4 was “inactive”. The “CYP2C9 inhibition (in words)” value at CYP2C9 is on record as “moderately inhibited”. Also, on CYP2C9 (% inhibition of human CYP isozymes at 10 μM), the “CYP inhibition 2C9” value is 66.1%. For the same compound, the “inhibitory activity against BMX (in words)” value against BMX is reported as “strong inhibitory activity”.
